# According to patent US10835840B2, “Methods for in situ separation of mixtures” (INTERNATIONAL SCIENTIFIC PTY LTD, priority 2015, dated 2020):
# Values joined by “and” are separate entries in the source; they are usually repeats but may differ in a detail not shown here. Equal values may be shown once.
# Tests used:
# [1] = Tape stripping after applying niacinamide gel mixture with or without weak magnetic field (ETP008), mass spectrometry; format: in vivo; set-up: unit not given here
# Source text: ETP008—a linear array of displaced dipolar magnetic elements comprising strontium oxides dispersed in a PVC film base. The displaced dipolar magnetic elements were created in parallel with a pole flux of 450 Gauss. Each element or pole was 2.7 mm wide, creating a pair of displaced dipolar magnetic elements of pitch of 1.5 pairs per centimetre. Inter-pair flux gradient was 900 Gauss or 1350 Gauss per centimetre.
# An aliquot of the niacinamide mixture was applied to both regions without rubbing. A magnetic film (ETP008) was placed in close proximity (approximately 0.5 mm) above the Active region for 5 minutes.
# The Tape strip samples were then analysed for niacinamide using a validated mass spectrometry method.
# [2] = in vivo
# Method: The subject's volar forearm or upper arm was delineated into two 3×3 cm square regions which were designated […]. […] After an absorption period of 30 minutes, the excess mixture was removed from each region by washing with water. The region was then tape stripped using the adapted procedure of Lademann et al (The tape stripping procedure—evaluation of some critical parameters. European Journal of Pharmaceutics and Biopharmaceutics 72 (2009) 317-323).
# [3] = Active, Total (6-10) tape strips
# [4] = Passive, Total (6-10) tape strips
compound,measurement,setting,value
NC(=O)c1cccnc1 [Niacinamide],"Niacinamide penetration, Average","[1]; Active (weak magnetic field, ETP008), Tape Strip 1",2.907
same,"Niacinamide penetration, individual columns 1-6","[1]; Active (weak magnetic field, ETP008, 5 minutes), Tape Strip 1, gel mixture, 30 minutes absorption",4.463 and 1.099 and 1.021 and 3.47 and 2.739 and 4.647
same,"Niacinamide penetration, Average","[1]; Active, Tape Strip 2",2.036
same,"Niacinamide penetration, individual columns 1-6","[1]; Active, Tape Strip 2",1.782 and 0.5649 and 1.07 and 1.211 and 2.226 and 5.364
same,"Niacinamide penetration, Average","[1]; Active, Tape Strip 3",1.12
same,"Niacinamide penetration, individual columns 1-6","[1]; Active, Tape Strip 3",1.137 and 0.5147 and 1.116 and 1.035 and 1.694 and 1.226
same,"Niacinamide penetration, Average","[1]; Active, Tape Strip 4",0.8796
same,"Niacinamide penetration, individual columns 1-6","[1]; Active, Tape Strip 4",0.9888 and 0.7087 and 1.098 and 0.8548 and 0.8425 and 0.7848
same,"Niacinamide penetration, Average","[1]; Active, Tape Strip 5",0.8556
same,"Niacinamide penetration, individual columns 1-6","[1]; Active, Tape Strip 5",0.9146 and 0.7814 and 0.7495 and 0.8808 and 1.167 and 0.6402
same,"Niacinamide penetration, Average","[1]; Active, Tape Strip 6",0.7575
same,"Niacinamide penetration, individual columns 1-6","[1]; Active, Tape Strip 6",0.895 and 0.8145 and 0.5287 and 0.8757 and 0.7531 and 0.6777
same,"Niacinamide penetration, Average","[1]; Active, Tape Strip 7",0.6674
same,"Niacinamide penetration, individual columns 1-6","[1]; Active, Tape Strip 7",0.6261 and 0.5502 and 0.4859 and 0.6321 and 0.6608 and 1.049
same,"Niacinamide penetration, Average","[1]; Active, Tape Strip 8",0.5672
same,"Niacinamide penetration, individual columns 1-6","[1]; Active, Tape Strip 8",0.4149 and 0.7107 and 0.4741 and 0.5541 and 0.5753 and 0.6739
same,"Niacinamide penetration, Average","[1]; Active, Tape Strip 9",0.4439
same,"Niacinamide penetration, individual columns 1-6","[1]; Active, Tape Strip 9",0.4666 and 0.5396 and 0.4059 and 0.4627 and 0.4898 and 0.2985
same,"Niacinamide penetration, Average","[1]; Active, Tape Strip 10",0.3798
same,"Niacinamide penetration, individual columns 1-6","[1]; Active, Tape Strip 10",0.4229 and 0.3982 and 0.3809 and 0.2336 and 0.5187 and 0.3243
same,"Niacinamide penetration, Average",[1]; [3],2.816
same,"Niacinamide penetration, individual columns 1-6",[1]; [3],2.826 and 3.013 and 2.276 and 2.758 and 2.998 and 3.024
same,"Niacinamide penetration, Average","[1]; Passive (no weak magnetic field), Tape Strip 1",2.428
same,"Niacinamide penetration, individual columns 1-6","[1]; Passive (no weak magnetic field), Tape Strip 1, gel mixture, 30 minutes absorption",4.785 and 1.997 and 0.8068 and 3.16 and 2.0563 and 1.761
same,"Niacinamide penetration, Average","[1]; Passive, Tape Strip 2",1.353
same,"Niacinamide penetration, individual columns 1-6","[1]; Passive, Tape Strip 2",1.077 and 0.9778 and 1.464 and 0.9842 and 1.846 and 1.768
same,"Niacinamide penetration, Average","[1]; Passive, Tape Strip 3",1.193
same,"Niacinamide penetration, individual columns 1-6","[1]; Passive, Tape Strip 3",0.6071 and 0.8166 and 1.131 and 1.06 and 1.456 and 2.085
same,"Niacinamide penetration, Average","[1]; Passive, Tape Strip 4",0.9603
same,"Niacinamide penetration, individual columns 1-6","[1]; Passive, Tape Strip 4",0.4947 and 1.297 and 0.8954 and 0.5456 and 0.8406 and 1.689
same,"Niacinamide penetration, Average","[1]; Passive, Tape Strip 5",0.8282
same,"Niacinamide penetration, individual columns 1-6","[1]; Passive, Tape Strip 5",0.5925 and 0.8516 and 0.935 and 0.6655 and 0.6213 and 1.303
same,"Niacinamide penetration, Average","[1]; Passive, Tape Strip 6",0.6176
same,"Niacinamide penetration, individual columns 1-6","[1]; Passive, Tape Strip 6",0.5736 and 0.5759 and 0.7258 and 0.5432 and 0.6385 and 0.6487
same,"Niacinamide penetration, Average","[1]; Passive, Tape Strip 7",0.6112
same,"Niacinamide penetration, individual columns 1-6","[1]; Passive, Tape Strip 7",0.5936 and 0.4867 and 0.5056 and 0.622 and 0.5467 and 0.9127
same,"Niacinamide penetration, Average","[1]; Passive, Tape Strip 8",0.4614
same,"Niacinamide penetration, individual columns 1-6","[1]; Passive, Tape Strip 8",0.5657 and 0.4006 and 0.4313 and 0.3634 and 0.4878 and 0.5195
same,"Niacinamide penetration, Average","[1]; Passive, Tape Strip 9",0.3664
same,"Niacinamide penetration, individual columns 1-6","[1]; Passive, Tape Strip 9",0.3146 and 0.4048 and 0.4168 and 0.4248 and 0.2422 and 0.3954
same,"Niacinamide penetration, Average","[1]; Passive, Tape Strip 10",0.3966
same,"Niacinamide penetration, individual columns 1-6","[1]; Passive, Tape Strip 10",0.3563 and 0.5215 and 0.2107 and 0.4442 and 0.3186 and 0.5283
same,"Niacinamide penetration, Average",[1]; [4],2.453
same,"Niacinamide penetration, individual columns 1-6",[1]; [4],2.404 and 2.39 and 2.29 and 2.398 and 2.234 and 3.005
Vitamin E,"Penetration of Vitamin E into the skin, in words",[2],much greater penetration
